# “And” between values parts separate entries of the source, which are not always exact repeats. Identical values can stand only once.
# Columns and labels:
# Hep G2.2.15 cells = assay: % Cell Viability in Anti-HBSAg Assay (Procedure A); format: cell-based, human; details: 50 μg/ml
# Procedure: (§1) The HBV-producing human hepatoblastoma cell line, Hep G2.2.15 was maintained in DMEM supplemented with 10% fetal bovine serum (FBS), 2 mM glutamine, 100 units/ml penicillin, 100 μg/ml streptomycin and 380 μg/ml gentamicin sulfate (G418) at 37° C. under 5% CO2 in air. The Hep G2 parental cells were grown under identical conditions in MEM with Earle's salts without G418.
# (§2) Hep G2.2.15 cells (190 μl) were seeded onto microtiter plates at a concentration of 20×10^4 cells/ml. The cells incubated overnight in medium without G418 after which the compound compositions (10 μl) were added. Five 2-fold serial dilutions of extracts or fractions were tested starting at 200 μg/ml final culture concentration. PBS and 3TC (lamivudine) were included as the negative and positive controls, respectively. The treated cells were incubated at 37° C. for 4 days, after which the hepatitis B surface antigen (HBsAg) production in culture supernatants was assayed. The HBsAg released into the culture medium in the presence or absence of test samples was assayed using the BIO-RAD Genetic Systems HBsAg EIA 3.0 kit (Bio-Rad, Redmond, Wash.). This enzyme immunoassay is based on the capture of HBsAg on monoclonal antibody-coated plates. Four- and twelve-fold dilutions of all culture supernatants collected were assayed in triplicate wells of the EIA plate. The percentage inhibition of HBsAg secretion in the presence of the plant samples was calculated against the negative control (PBS).
# HCV/HIV pseudovirions = assay: microbe, parasite or virus in culture; format: cell-based, hepatitis C virus; details: FIG. 1
# [1] = tested on: hepatitis B surface antigen (HBsAg) production; assay: Anti-HBSAg Assay (Procedure A); format: cell-based, hepatitis B virus; details: 50 μg/ml
# Procedure: as §1, §2
# HBeAg = assay: Anti-HBSAg Assay (Procedure B), HBeAg; format: cell-based, hepatitis B virus
# HBsAg = assay: Anti-HBSAg Assay (Procedure B), HBsAg; format: cell-based, hepatitis B virus
# Procedure: The HBV-producing human hepatoblastoma cell line, Hep G2 2.2.15 is maintained in DMEM supplemented with 10% fetal bovine serum (FBS), 2 mM glutamine, 100 units/ml penicillin, 100 μg/ml streptomycin at 37° C. under 5% CO2 in air.
# Samples were dissolved in DMSO at the concentration of 20 mg/mL, then further diluted with DMEM medium to the appropriate concentration.
# Hep G2 2.2.15 cells (120 μl) were seeded onto 96-well plates at a concentration of 2×10^5 cells/mL. The cells incubated for 72 h in the medium without G418, after which the test samples (120 μl) were added. Five 3-fold serial dilutions of samples were tested. PBS and 3TC (lamivudine) were included as the negative and positive controls, respectively. The treated cells were incubated at 37° C. for 9 days; with the medium with sample being changed each 3 days, after which the culture supernatant was removed for analysis of both the hepatitis B surface antigen (HBsAg) production and hepatitis B DNA expression.
# The HBsAg released into the culture medium in the presence or absence of test material was assayed using the kit manufactured by Shanghai Siic Kehua Biotech Co., Ltd (Shanghai, China). This enzyme immunoassay is based on the capture of HBsAg on monoclonal antibody-coated plates. Four- and twelve-fold dilutions of all culture supernatants collected were assayed in triplicate wells of the kit plate. The percentage inhibition of HBsAg secretion in the presence of the compound was calculated against the negative control (PBS). The IC50 values, the dose that inhibited viruses by 50%, were calculated using non-linear regression analysis (percent survival versus concentration).
# HBV DNA = assay: Anti-HBV DNA Assay; format: cell-based, hepatitis B virus; details: for HBV DNA copies/ml: replicates, listed as HP-S1
# HCV = details: cited from earlier work
molecule,measurement,setting,value
COC(=O)C1=CO[C@@H](O[C@@H]2O[C@H](CO)[C@@H](O)[C@H](O)[C@H]2O)[C@H]2[C@@H]1[C@H](O)[C@H](O)[C@]2(C)O [lamiridoside],% Cell Viability,Hep G2.2.15 cells,100%
same,inhibition of HCV/HIV entry,HCV/HIV pseudovirions; 100 μg/mL,inactive
same,anti-hepatitis C virus activity (in words),HCV/HIV pseudovirions,inactive
same,% Control HBSAg,[1],96%
same,% Inhibition,[1],4%
same,HBeAg Ave,HBeAg; 12.5 μg/mL,1.369
same,HBeAg Inhibition %,HBeAg; 12.5 μg/mL,0%
same,HBeAg OD1,HBeAg; 12.5 μg/mL,1.509
same,HBeAg OD2,HBeAg; 12.5 μg/mL,1.254
same,HBeAg OD3,HBeAg; 12.5 μg/mL,1.345
same,HBeAg Ave,HBeAg; 25 μg/mL,1.512
same,HBeAg Inhibition %,HBeAg; 25 μg/mL,0%
same,HBeAg OD1,HBeAg; 25 μg/mL,1.558
same,HBeAg OD2,HBeAg; 25 μg/mL,1.488
same,HBeAg OD3,HBeAg; 25 μg/mL,1.49
same,HBeAg Ave,HBeAg; 50 μg/mL,1.642
same,HBeAg Inhibition %,HBeAg; 50 μg/mL,0%
same,HBeAg OD1,HBeAg; 50 μg/mL,1.774
same,HBeAg OD2,HBeAg; 50 μg/mL,1.669
same,HBeAg OD3,HBeAg; 50 μg/mL,1.482
same,HBeAg Ave,HBeAg; 100 μg/mL,1.558
same,HBeAg Inhibition %,HBeAg; 100 μg/mL,0%
same,HBeAg OD1,HBeAg; 100 μg/mL,1.607
same,HBeAg OD2,HBeAg; 100 μg/mL,1.502
same,HBeAg OD3,HBeAg; 100 μg/mL,1.565
same,HBeAg Ave,HBeAg; 200 μg/mL,1.450
same,HBeAg Inhibition %,HBeAg; 200 μg/mL,0%
same,HBeAg OD1,HBeAg; 200 μg/mL,1.095
same,HBeAg OD2,HBeAg; 200 μg/mL,1.634
same,HBeAg OD3,HBeAg; 200 μg/mL,1.621
same,HBsAg Ave.,HBsAg; 12.5 μg/mL,1.262
same,HBsAg Inhibition %,HBsAg; 12.5 μg/mL,0%
same,HBsAg OD1,HBsAg; 12.5 μg/mL,1.305
same,HBsAg OD2,HBsAg; 12.5 μg/mL,1.149
same,HBsAg OD3,HBsAg; 12.5 μg/mL,1.331
same,HBsAg Ave.,HBsAg; 25 μg/mL,1.474
same,HBsAg Inhibition %,HBsAg; 25 μg/mL,0%
same,HBsAg OD1,HBsAg; 25 μg/mL,1.604
same,HBsAg OD2,HBsAg; 25 μg/mL,1.418
same,HBsAg OD3,HBsAg; 25 μg/mL,1.401
same,HBsAg Ave.,HBsAg; 50 μg/mL,1.473
same,HBsAg Inhibition %,HBsAg; 50 μg/mL,0%
same,HBsAg OD1,HBsAg; 50 μg/mL,1.659
same,HBsAg OD2,HBsAg; 50 μg/mL,1.504
same,HBsAg OD3,HBsAg; 50 μg/mL,1.255
same,HBsAg Ave.,HBsAg; 100 μg/mL,1.507
same,HBsAg Inhibition %,HBsAg; 100 μg/mL,0%
same,HBsAg OD1,HBsAg; 100 μg/mL,1.584
same,HBsAg OD2,HBsAg; 100 μg/mL,1.469
same,HBsAg OD3,HBsAg; 100 μg/mL,1.468
same,HBsAg Ave.,HBsAg; 200 μg/mL,1.527
same,HBsAg Inhibition %,HBsAg; 200 μg/mL,0%
same,HBsAg OD1,HBsAg; 200 μg/mL,1.546
same,HBsAg OD2,HBsAg; 200 μg/mL,1.504
same,HBsAg OD3,HBsAg; 200 μg/mL,1.531
same,anti-HBSAg activity (in words),HBsAg; Tables 1-2,inactive
same,HBV DNA Average,HBV DNA; 12.5 μg/ml,1.18 × 10^6 copies/ml
same,HBV DNA Inhibit,HBV DNA; 12.5 μg/ml,0.00%
same,HBV DNA copies/ml,HBV DNA; 12.5 μg/ml,1.32E+06 copies/ml and 9.64E+05 copies/ml and 1.26E+06 copies/ml
same,HBV DNA Average,HBV DNA; 25 μg/ml,1.64 × 10^6 copies/ml
same,HBV DNA Inhibit,HBV DNA; 25 μg/ml,0.00%
same,HBV DNA copies/ml,HBV DNA; 25 μg/ml,1.95E+06 copies/ml and 1.30E+06 copies/ml and 1.67E+06 copies/ml
same,HBV DNA Average,HBV DNA; 50 μg/ml,1.16 × 10^6 copies/ml
same,HBV DNA Inhibit,HBV DNA; 50 μg/ml,0.85%
same,HBV DNA copies/ml,HBV DNA; 50 μg/ml,1.26E+06 copies/ml and 1.14E+06 copies/ml and 1.07E+06 copies/ml
same,HBV DNA Average,HBV DNA; 100 μg/ml,1.02 × 10^6 copies/ml
same,HBV DNA Inhibit,HBV DNA; 100 μg/ml,12.80%
same,HBV DNA copies/ml,HBV DNA; 100 μg/ml,7.78E+05 copies/ml and 7.93E+05 copies/ml and 1.50E+06 copies/ml
same,HBV DNA Average,HBV DNA; 200 μg/ml,8.40 × 10^5 copies/ml
same,HBV DNA Inhibit,HBV DNA; 200 μg/ml,28.20%
same,HBV DNA copies/ml,HBV DNA; 200 μg/ml,1.17E+06 copies/ml and 5.77E+05 copies/ml and 7.74E+05 copies/ml
same,Anti-HBV DNA activity (in words),HBV DNA; Table 3,inactive
"COc1cc2c(c(OC)c1OC)-c1ccc(OC)c(=O)cc1[C@@H](NC(C)=O)CC2 [Colchicine, colchicine]",effect on disease progression (in words),HCV; advanced liver disease,does not slow the disease progression
alpha-interferon,patients with a pronounced effect in reducing HCV to a very low level in the blood,HCV; chronic hepatitis C patients,about 25%
